Results taken from PMC6912754, “Identification of A Novel Class of Benzofuran Oxoacetic Acid-Derived Ligands that Selectively Activate Cellular EPAC1” (Cells, 2019).

biological target: T1, EPAC2-CNBD (Homo sapiens, UniProt Q8WZA2); assay: biochemical; set-up: 8-NBD-cAMP competition binding to GST-CNBD, fluorescence intensity 480/535 nm, dose response; conditions: 8-NBD-cAMP displacement, mean; read-out: Pharmacology assay data / EPAC2 pIC50 (mean) (converted)
T1 construct: gene RAPGEF4
Procedure: 8-(2-[7-nitro-4-benzofurazanyl] aminoethylthio) adenosine-3′,5′-cyclic monophosphate (8-NBD-cAMP) competition assays were performed with purified EPAC1-CNBD and EPAC2-CNBD GST-fusion proteins as previously described. Comparison of reference molecules, dose response curves (DRC) and pilot screens were done in black, low volume 384 assay plates (Greiner). Plates were incubated for 4 h before 8-NBD-cAMP fluorescence intensity at 480/535 nm (ex/em) was measured using the Envision multi-label plate reader (Perkin-Elmer; Waltham, MA, USA). EPAC1-CNBD (amino acids 169–318 of EPAC1) and EPAC2-CNBD (amino acids 304-453) cDNAs were previously sub-cloned into the multi-cloning site of the pGEX-6P-1 expression vector (GE Healthcare) by BC Bioscienes (Dundee, Scotland). Ral-GDS-RBD (amino acids 788-884) was cloned into pGEX-5X-1 as described. Recombinant EPAC1-CNBD, EPAC2-CNBD, EPAC1 (amino acids 149–881), Ral-GDS-RBD (amino acids 788-884), and Rap1B (amino acids 1–167) glutathione S-transferase (GST)-fusion proteins were then expressed and purified from BL-21 Escherichia coli, as previously described. Protein concentrations were determined by the bicinchoninic acid (BCA) assay or by Nanodrop 2000/2000c (Thermo Scientific). All recombinant proteins were determined to be pure by SDS-PAGE analysis. Proteins were stored in aliquots at −80 °C until required. Preliminary SAR on a benzofuran oxo-acetic acid series, based on SY000, was done using 8NBD-cAMP binding to EPAC1 and EPAC2 CNBDs, as summarized in the Supplementary Table, Supplementary Figures and Figure 4. […] Further alternatives to the R1 group (Figure S2), including reducing the linker length by a single [compound left out] […] In addition, N-methylation of the amide portion (ESC100960) also results in loss of activity. This could indicate a role for the NH as a hydrogen bond donor or that the substitution could adversely affect the conformation of the adjacent oxo-acetic acid group.

T1 sequence (Q8WZA2 whole entry): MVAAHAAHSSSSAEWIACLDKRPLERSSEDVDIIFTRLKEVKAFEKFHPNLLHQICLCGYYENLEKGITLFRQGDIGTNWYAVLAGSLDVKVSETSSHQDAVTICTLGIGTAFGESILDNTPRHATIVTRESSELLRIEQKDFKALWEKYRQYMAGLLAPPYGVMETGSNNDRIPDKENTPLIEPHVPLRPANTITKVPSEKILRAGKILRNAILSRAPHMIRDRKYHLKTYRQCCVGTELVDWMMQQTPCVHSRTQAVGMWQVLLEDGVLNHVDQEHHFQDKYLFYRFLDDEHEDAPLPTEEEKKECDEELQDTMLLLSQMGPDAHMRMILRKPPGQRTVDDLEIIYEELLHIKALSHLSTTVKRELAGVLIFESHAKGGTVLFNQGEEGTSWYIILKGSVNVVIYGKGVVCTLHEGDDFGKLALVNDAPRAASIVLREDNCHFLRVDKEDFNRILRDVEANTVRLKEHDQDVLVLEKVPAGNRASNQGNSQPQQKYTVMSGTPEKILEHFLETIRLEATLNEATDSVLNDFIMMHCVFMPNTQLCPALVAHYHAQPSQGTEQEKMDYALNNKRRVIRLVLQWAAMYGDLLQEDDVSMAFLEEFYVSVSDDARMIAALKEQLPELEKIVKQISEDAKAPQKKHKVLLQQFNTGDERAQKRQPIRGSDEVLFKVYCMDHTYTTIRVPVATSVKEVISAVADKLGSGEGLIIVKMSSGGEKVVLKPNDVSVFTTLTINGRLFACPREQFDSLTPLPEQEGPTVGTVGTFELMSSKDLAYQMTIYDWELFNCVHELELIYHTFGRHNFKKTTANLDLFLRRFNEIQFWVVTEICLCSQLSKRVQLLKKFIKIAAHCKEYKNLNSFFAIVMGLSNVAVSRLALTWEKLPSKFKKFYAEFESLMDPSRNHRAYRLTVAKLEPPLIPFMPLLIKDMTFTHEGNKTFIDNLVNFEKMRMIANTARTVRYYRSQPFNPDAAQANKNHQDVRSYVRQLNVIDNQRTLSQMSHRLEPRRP

Row | Compound | IC50
1 | Cc1c(C(=O)c2cccc(Br)c2)oc2ccc(CNC(=O)C(=O)O)cc12 [ESC1000906] | 7.94 µM
2 | Cc1ccc(C(=O)c2oc3ccc(CNC(=O)C(=O)O)cc3c2C)cc1 [SY000] | 7.94 µM

The remaining lines, values ahead:

Row | IC50 | Compound
3 | 31.6 µM | Cc1ccc(C(=O)c2oc3ccc(CNC(=O)C(=O)O)cc3c2C(C)C)cc1 [SY009]
4 | 5.01 µM | CCc1c(C(=O)c2ccc(C)cc2)oc2ccc(CNC(=O)C(=O)O)cc12 [SY007]
5 | 22.4 µM | Cc1ccc(C(=O)c2oc3ccc(CNC(=O)C(=O)O)cc3c2C(C)(C)C)cc1 [SY006]
